From paper PMC6882824, “Engineering of chimeric peptides as antagonists for the G protein-coupled receptor, RXFP4” (Scientific Reports, 2019)
“Also recorded” adds a separate entry of the source. Read-outs that look alike come from different tables or passages of the source. Bridge positions count the residues as written; N and C are the ends. Peptide text beside a SMILES is read from it. I, II: the chains in the order shown.

Columns and labels:
RXFP4 [1] = target: T1, RXFP4 (Homo sapiens, UniProt Q8TDU9); test: Competition binding in CHO-K1-RXFP4 cells (Eu-DTPA-mINSL5); design: expressed in transfected cells; host or cells: CHO-K1 (ATCC), stably transfected
Procedure: (§1) Chinese hamster ovary CHO-K1 cells (sourced from American Type Culture Collection (ATCC), Maryland, USA) stably transfected with RXFP3[33] or RXFP4[9] were plated out onto precoated poly-L-lysine 96-well view plates at a density of 50 000 cells per well. Medium was aspirated off and the cells were washed with phosphate-buffered saline (PBS) before competition binding assays were performed with 5 nM Eu-H3B1–22R[34] (RXFP3 ligand) or 5 nM Eu-DTPA-mINSL5[9] (RXFP4 ligand) as previously described. Competition binding curves were performed in triplicate and each experiment was performed independently at least three times. Fluorescent measurements were carried out on a BMG POLARstar plate reader (BMG Labtech, Melbourne, Australia. Pooled data are presented as mean ± S.E of specific binding and are fitted using one-site binding curve in GraphPad Prism version 8 (GraphPad Inc., San Diego, USA). Statistical analyses were conducted using one-way analysis of variance with uncorrected Fisher’s least significant difference (LSD) post-hoc analysis in GraphPad Prism version 8.

RXFP4 [2] = target: T1, RXFP4; test: cAMP antagonist assay against 16.6 nM analogue 13 in CHO-K1-RXFP4 cells; assay type: cell-based; design: expressed in transfected cells; host or cells: CHO-K1 (ATCC), stably transfected; details: for Emax: SEM, read-out: RXFP4 Emax (antagonist efficacy)
Procedure: (§2) The peptides were tested for their ability to inhibit forskolin induced cAMP activity in CHO-K1-RXFP3 or CHO-K1-RXFP4 cells transfected with a pCRE (cAMP Response Element) β-galactosidase reporter plasmid as previously described[9],[34]. For agonist assays cells were stimulated with forskolin (5 µM for RXFP3, 1 µM for RXFP4) plus or minus increasing concentrations of each peptide for 6 hours. For antagonist assays cells were stimulated with forskolin as in agonist assays plus increasing concentrations of each peptide for 10 minutes followed by stimulation with agonist at an ~EC80 concentration for a further 6 hours (10 nM Analogue 2 for RXFP3 and 16.6 nM Analogue 13 for RXFP4). Each peptide was tested in triplicate and each experiment was performed independently at least three times. Agonist data was expressed as the % Forskolin activity whereby 100% was defined as Forskolin alone and 0% as maximum agonist stimulation (1 µM Analogue 2 for RXFP3 and 1 µM Analogue 13 for RXFP4). […] Data were analysed and plotted using GraphPad PRISM 8 and are expressed as the mean ± SEM of the pooled data. Statistical analysis was conducted using one-way ANOVA with Uncorrected Fisher’s LSD post-hoc analysis in GraphPad Prism version 8.

RXFP3 [3] = target: T2, RXFP3 (Homo sapiens, UniProt Q9NSD7); test: cAMP antagonist assay against 10 nM analogue 2 in CHO-K1-RXFP3 cells; assay type: cell-based; details: for Emax: SEM, read-out: RXFP3 Emax (antagonist efficacy)
T2 construct: expressed in transfected cells; host or cells: CHO-K1 (ATCC), stably transfected
T2 sequence (Q9NSD7 1-469): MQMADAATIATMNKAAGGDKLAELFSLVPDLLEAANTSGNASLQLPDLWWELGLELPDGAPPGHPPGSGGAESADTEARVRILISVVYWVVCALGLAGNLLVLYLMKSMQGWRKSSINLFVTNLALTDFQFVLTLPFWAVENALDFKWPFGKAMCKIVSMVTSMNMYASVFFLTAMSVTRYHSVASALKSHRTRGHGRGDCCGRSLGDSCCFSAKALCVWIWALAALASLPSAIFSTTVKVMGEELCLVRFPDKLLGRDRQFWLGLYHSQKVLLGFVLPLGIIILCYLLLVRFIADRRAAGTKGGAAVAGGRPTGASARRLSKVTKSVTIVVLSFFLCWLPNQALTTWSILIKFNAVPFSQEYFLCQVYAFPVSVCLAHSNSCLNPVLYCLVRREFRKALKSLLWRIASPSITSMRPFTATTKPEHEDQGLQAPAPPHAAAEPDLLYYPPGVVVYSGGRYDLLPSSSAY
Procedure: as §2

RXFP3 [4] = target: T2, RXFP3; test: cAMP agonist assay (inhibition of forskolin-induced cAMP, pCRE β-galactosidase reporter) in CHO-K1-RXFP3 cells; assay type: cell-based; details: CHO-K1-RXFP3 cells, inhibition of 5 µM forskolin-induced cAMP, 6 hours; mean ± SEM, n in cell
Procedure: as §2

RXFP3 [5] = target: T2, RXFP3; test: Competition binding in CHO-K1-RXFP3 cells (Eu-H3B1-22R)
Procedure: as §1

RXFP4 [6] = target: T1, RXFP4; test: cAMP agonist assay (inhibition of forskolin-induced cAMP, pCRE β-galactosidase reporter) in CHO-K1-RXFP4 cells; assay type: cell-based; design: expressed in transfected cells; host or cells: CHO-K1 (ATCC), stably transfected; details: CHO-K1-RXFP4 cells, inhibition of 1 µM forskolin-induced cAMP, 6 hours; mean ± SEM, n in cell
Procedure: as §2

RXFP3 [7] = target: T2, RXFP3; details: CRE-reporter gene assay; cited from earlier work
RXFP4 [8] = target: T1, RXFP4; design: expressed in transfected cells; method as in PMID 17606621; details: SK-N-MC/CRE-β-gal cells expressing human RXFP4; cited from earlier work
RXFP3 [9] = details: HEK-293s cells expressing rat and human RXFP3; cited from earlier work
RXFP3 [10] = target: T2, RXFP3; details: cited from earlier work
RXFP3 [11] = details: SK-N-MC/CRE-β-gal cells expressing human RXFP3; cited from earlier work
Text: Here we have chemically synthesized and pharmacologically characterized ΔR3/I5 for binding and cAMP potency in CHO cells stably expressing RXFP3 (CHO-RXFP3) or RXFP4 (CHO-RXFP4).

T1 sequence (Q8TDU9 whole entry): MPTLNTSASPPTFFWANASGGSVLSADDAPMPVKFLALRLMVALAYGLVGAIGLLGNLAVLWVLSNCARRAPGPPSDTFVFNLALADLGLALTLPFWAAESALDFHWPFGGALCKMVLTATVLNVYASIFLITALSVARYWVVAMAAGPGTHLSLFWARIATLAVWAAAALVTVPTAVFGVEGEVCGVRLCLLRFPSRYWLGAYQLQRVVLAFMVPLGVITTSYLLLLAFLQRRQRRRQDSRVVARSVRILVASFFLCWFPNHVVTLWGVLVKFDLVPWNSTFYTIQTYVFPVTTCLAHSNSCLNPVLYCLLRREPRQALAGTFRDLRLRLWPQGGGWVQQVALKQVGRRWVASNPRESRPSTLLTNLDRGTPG

Question: For CC[C@H](C)[C@@H]1NC(=O)[C@H](Cc2ccccc2)NC(=O)[C@H](CCC(=O)O)NC(=O)[C@H](CCCNC(=N)N)NC(=O)CNC(=O)[C@@H](NC(=O)[C@H](CC(C)C)NC(=O)[C@H](CCCNC(=N)N)NC(=O)[C@@H](NC(=O)CNC(=O)[C@H](Cc2ccc(O)cc2)NC(=O)[C@H](CCCCN)NC(=O)[C@H](C)NC(=O)[C@H](C)NC(=O)[C@@H](N)CCCNC(=N)N)C(C)C)CSSC[C@H](N)C(=O)N[C@@H]([C@@H](C)O)C(=O)N[C@@H](CC(=O)O)C(=O)NCC(=O)N[C@@H](C)C(=O)N[C@@H](CO)C(=O)N[C@@H](CCSC)C(=O)N[C@@H](CCCCN)C(=O)N[C@@H](CC(=O)O)C(=O)N[C@@H](CC(C)C)C(=O)N[C@@H](CO)C(=O)N[C@@H](C)C(=O)N[C@@H](CC(C)C)C(=O)N[C@H](C(=O)O)CSSC[C@@H](C(=O)N[C@@H](CCCNC(=N)N)C(=O)O)NC(=O)[C@H]([C@@H](C)O)NC(=O)[C@H](Cc2ccccc2)NC(=O)[C@H]([C@@H](C)CC)NC(=O)[C@H](C(C)C)NC(=O)[C@H](C)NC(=O)[C@H](CCCNC(=N)N)NC1=O [Analogue 19] (I: H-RAAKYGVRLCGREFIRAVIFTCR-OH / II: H-CTDGASMKDLSALC-OH; disulfide I:10-II:1, I:22-II:14; N-terminus assumed), which Ki (RXFP4 [1]; CHO-K1 cells stably transfected with RXFP4, competition with 5 nM Eu-DTPA-mINSL5, read-out: RXFP4 Binding Ki) is on record?
Answer: 10.2 nM

Question: What about the IC50 (RXFP4 [2]; CHO-K1-RXFP4 cells, block of 16.6 nM analogue 13, read-out: RXFP4 Antagonist potency IC50) of the same molecule?
Answer: 79.4 nM

Question: What about the Emax (RXFP4 [2]) of the same molecule?
Answer: 71.3 ± 4.8%

Question: What about the IC50 (RXFP3 [3]; CHO-K1-RXFP3 cells, peptide 10 minutes, then 10 nM analogue 2 for 6 hours, 5 µM forskolin, mean ± SEM, read-out: RXFP3 Antagonist potency pIC50 (converted)) of the same molecule?
Answer: > 10000 nM

Question: What about the Emax (RXFP3 [3]) of the same molecule?
Answer: 76.3 ± 1.8%

Question: What about the “RXFP3 Activity pEC50” value (RXFP3 [4]) of the same molecule?
Answer: No activity (3)

Question: What about the Ki (RXFP3 [5]; CHO-K1 cells stably transfected with RXFP3, competition with 5 nM Eu-H3B1-22R, read-out: RXFP3 Binding Ki) of the same molecule?
Answer: 7.94 nM

Question: What about the “RXFP4 Activity pEC50” value (RXFP4 [6]) of the same molecule?
Answer: Weak partial agonist (4)

Question: For CC[C@H](C)[C@@H]1NC(=O)[C@H](Cc2ccccc2)NC(=O)[C@H](CCC(=O)O)NC(=O)[C@H](CCCNC(=N)N)NC(=O)CNC(=O)[C@@H](NC(=O)[C@H](CC(C)C)NC(=O)[C@H](CCCNC(=N)N)NC(=O)[C@@H](NC(=O)CNC(=O)[C@H](Cc2ccc(O)cc2)NC(=O)[C@@H]2CCCN2C(=O)[C@H](C)NC(=O)[C@H](C)NC(=O)[C@@H](N)CCCNC(=N)N)C(C)C)CSSC[C@@H]2NC(=O)[C@@H](NC(=O)[C@H](CC(C)C)NC(=O)[C@@H](NC(=O)[C@H](CCC(N)=O)NC(=O)[C@H](CC(C)C)NC(=O)[C@H](CC(=O)O)NC(=O)[C@@H]3CCC(=O)N3)[C@@H](C)O)CSSC[C@H](NC(=O)CNC(=O)[C@H](CC(=O)O)NC(=O)[C@H]([C@@H](C)O)NC2=O)C(=O)N[C@@H](CO)C(=O)N[C@@H](CCSC)C(=O)N[C@@H]([C@@H](C)O)C(=O)N[C@@H](CC(=O)O)C(=O)N[C@@H](CC(C)C)C(=O)N[C@@H](CO)C(=O)N[C@@H](C)C(=O)N[C@@H](CC(C)C)C(=O)N[C@H](C(=O)O)CSSC[C@@H](C(=O)N[C@@H](CCCNC(=N)N)C(=O)O)NC(=O)[C@H]([C@@H](C)O)NC(=O)[C@H](Cc2ccccc2)NC(=O)[C@H]([C@@H](C)CC)NC(=O)[C@H](C(C)C)NC(=O)[C@H](C)NC(=O)[C@H](CCCNC(=N)N)NC1=O [ΔR3/I5, reference compound], which Ki (RXFP4 [1]; SEM) is on record?
Answer: 4.57 nM

Question: What about the “Agonist activity in CHO-RXFP3 cells” value (RXFP3 [7]) of the same molecule?
Answer: no agonist activity

Question: And the IC50 (RXFP4 [2])?
Answer: 17.4 nM

Question: And the Emax (RXFP4 [2])?
Answer: 36.7 ± 7.4%

Question: What about the IC50 (RXFP3 [3]) of the same molecule?
Answer: 117 nM

Question: What about the Emax (RXFP3 [3]) of the same molecule?
Answer: 100 ± 3.8%

Question: What about the “Agonist activity at RXFP4 (original report)” value (RXFP4 [8]) of the same molecule?
Answer: no agonist activity

Question: And the “RXFP3 Activity pEC50” value (RXFP3 [4])?
Answer: unable to activate RXFP3; also recorded: No activity (3)

Question: What about the “Agonism in [35S]-GTPγS binding, cAMP activation and dynamic mass redistribution” value (RXFP3 [9]) of the same molecule?
Answer: partial agonist

Question: What about the “Agonism of p38MAPK, ERK1/2 and cAMP signalling at RXFP3” value (RXFP3 [10]) of the same molecule?
Answer: weak partial agonist

Question: What about the “Agonist activity at RXFP3 (original report)” value (RXFP3 [11]) of the same molecule?
Answer: no agonist activity

Question: And the Ki (RXFP3 [5]; SEM)?
Answer: 9.77 nM

Question: What about the “RXFP4 Activity pEC50” value (RXFP4 [6]) of the same molecule?
Answer: Weak partial agonist (5)
